Laboratory results reported in patent US10259810B2, “N-sulfonylated pyrazolo[3,4-b]pyridin-6-carboxamides and method of use” (AbbVie S.à.r.l., priority 2015, dated 2019).

Tests used:
ΔF508-CFTR [1] = molecular target: T1, ΔF508-CFTR (Homo sapiens, UniProt P13569, DEL508-508); test: CFTR cell surface levels using HRP-tagged ΔF508-CFTR expressing CFBE cells, intrinsic corrector capacity; assay type: cell-based; design: % Activation: concentration or dose not given beside the values
T1 construct: host or cells: CFBE41o-, doxycycline-inducible
Procedure, shortened: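 Surface ΔF508-CFTR was measured as HRP chemiluminescence from an extracellular-loop-4 tag, expressed as percent activity between DMSO and a […] corrector control.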

ΔF508-CFTR [2] = molecular target: T1, ΔF508-CFTR; test: CFTR cell surface levels using HRP-tagged ΔF508-CFTR expressing CFBE cells, in the presence of a co-corrector; assay type: cell-based
Procedure, shortened: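 Chemiluminescent read-out of surface HRP (15 min, dark) after PBS washes. Activity is normalized as 100×(sample−DMSO)/(3 μM co-corrector alone−DMSO).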

[3] = HRP-tagged ΔF508-CFTR expressing CFBE41o- cells, compound alone (intrinsic corrector capacity), 20 hours at 33° C.
[4] = HRP-tagged ΔF508-CFTR expressing CFBE41o- cells, compound alone (intrinsic corrector capacity), 20 hours at 33° C., read-out: EC50
[5] = HRP-tagged ΔF508-CFTR CFBE cells, in the presence of 3 μM co-corrector
[6] = HRP-tagged ΔF508-CFTR CFBE cells, in the presence of 3 μM co-corrector, read-out: EC50

T1 sequence (P13569 with tags, fused parts or gaps DEL508-508): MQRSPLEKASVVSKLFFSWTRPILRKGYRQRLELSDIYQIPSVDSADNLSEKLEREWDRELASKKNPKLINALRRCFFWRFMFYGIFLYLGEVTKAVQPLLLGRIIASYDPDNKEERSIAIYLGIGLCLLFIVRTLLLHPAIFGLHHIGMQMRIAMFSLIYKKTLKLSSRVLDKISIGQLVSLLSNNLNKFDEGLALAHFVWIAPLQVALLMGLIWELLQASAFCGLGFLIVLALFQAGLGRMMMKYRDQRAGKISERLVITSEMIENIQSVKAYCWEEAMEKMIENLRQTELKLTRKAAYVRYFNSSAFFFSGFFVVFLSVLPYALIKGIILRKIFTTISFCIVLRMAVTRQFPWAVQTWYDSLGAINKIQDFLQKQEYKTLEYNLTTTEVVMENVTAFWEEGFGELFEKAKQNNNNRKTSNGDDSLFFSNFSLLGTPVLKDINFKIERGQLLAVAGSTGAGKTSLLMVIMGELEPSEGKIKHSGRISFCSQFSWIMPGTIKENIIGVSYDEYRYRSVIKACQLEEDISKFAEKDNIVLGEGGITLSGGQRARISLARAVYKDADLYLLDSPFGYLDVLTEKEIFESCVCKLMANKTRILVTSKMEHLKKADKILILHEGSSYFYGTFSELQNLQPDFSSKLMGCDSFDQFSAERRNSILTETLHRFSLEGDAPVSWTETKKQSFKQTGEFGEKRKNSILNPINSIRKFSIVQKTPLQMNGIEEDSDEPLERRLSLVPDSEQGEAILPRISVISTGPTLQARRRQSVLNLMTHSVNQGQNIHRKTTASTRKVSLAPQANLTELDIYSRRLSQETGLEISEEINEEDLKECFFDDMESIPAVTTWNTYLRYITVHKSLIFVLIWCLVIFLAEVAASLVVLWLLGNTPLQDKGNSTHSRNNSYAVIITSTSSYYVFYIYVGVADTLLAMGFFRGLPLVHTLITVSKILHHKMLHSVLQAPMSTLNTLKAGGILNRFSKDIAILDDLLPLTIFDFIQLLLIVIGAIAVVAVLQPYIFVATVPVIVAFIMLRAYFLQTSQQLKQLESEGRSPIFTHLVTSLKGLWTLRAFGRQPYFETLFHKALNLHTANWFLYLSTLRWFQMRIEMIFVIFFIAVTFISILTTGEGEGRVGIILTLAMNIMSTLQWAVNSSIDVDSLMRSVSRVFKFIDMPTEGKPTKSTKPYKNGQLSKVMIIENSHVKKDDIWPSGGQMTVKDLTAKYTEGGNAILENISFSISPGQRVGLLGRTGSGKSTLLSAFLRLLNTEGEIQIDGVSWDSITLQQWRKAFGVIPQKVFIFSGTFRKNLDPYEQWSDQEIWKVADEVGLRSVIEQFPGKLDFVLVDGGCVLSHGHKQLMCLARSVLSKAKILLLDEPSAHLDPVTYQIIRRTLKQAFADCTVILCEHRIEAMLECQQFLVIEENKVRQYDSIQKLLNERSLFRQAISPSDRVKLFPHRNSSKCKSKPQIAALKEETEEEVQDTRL

Structure (SMILES) | % Activation (ΔF508-CFTR [1]; [3]) | EC50 (ΔF508-CFTR [1]; [4]) | % Activation (ΔF508-CFTR [2]; [5]) | EC50 (ΔF508-CFTR [2]; [6]) | EC50 (ΔF508-CFTR [1]) | EC50 (ΔF508-CFTR [2])
CN(C)S(=O)(=O)NC(=O)c1cc(OCC2CCN(C3CCOCC3)CC2)c2c(C3CCC3)nn(-c3ccc(F)cc3)c2n1 [Compound 619, 3-cyclobutyl-N-(dimethylsulfamoyl)-1-(4-fluorophenyl)-4-{[1-(oxan-4-yl)piperidin-4-yl]methoxy}-1H-pyrazolo[3,4-b]pyridine-6-carboxamide] | 102.8% | 680 nM | 277.25% | 375 nM |  | 
COCC1CCN(c2cc(C(=O)N(C)S(C)(=O)=O)nc3c2c(C2CCC2)nn3-c2ccccc2)CC1 [Compound 657, 3-cyclobutyl-N-(methanesulfonyl)-4-[4-(methoxymethyl)piperidin-1-yl]-N-methyl-1-phenyl-1H-pyrazolo[3,4-b]pyridine-6-carboxamide] | 98% | 281 nM | 270.75% | 197 nM |  | 
COC1CCN(S(=O)(=O)NC(=O)c2cc(N3CCC(N4CCOCC4)CC3)c3c(C4CCC4)nn(-c4ccc(F)cc4)c3n2)C1 (stereo not drawn) [Compound 538, 3-cyclobutyl-1-(4-fluorophenyl)-N-(3-methoxypyrrolidine-1-sulfonyl)-4-[4-(morpholin-4-yl)piperidin-1-yl]-1H-pyrazolo[3,4-b]pyridine-6-carboxamide] | 228.9% | 2070 nM | 427.95% | 358 nM |  | 
CC1(C)CN(C2CCN(c3cc(C(=O)NS(C)(=O)=O)nc4c3c(C3CCC3)nn4-c3ccc(F)cc3)CC2)CCO1 [Compound 588, 3-cyclobutyl-4-[4-(2,2-dimethylmorpholin-4-yl)piperidin-1-yl]-1-(4-fluorophenyl)-N-(methanesulfonyl)-1H-pyrazolo[3,4-b]pyridine-6-carboxamide] | 366.8% | 126 nM | 571.2% | 29 nM |  | 
CC(C)OC1CCN(c2cc(C(=O)NS(C)(=O)=O)nc3c2c(C2CCC2)nn3-c2ccccc2)CC1 [Compound 151, 3-cyclobutyl-N-(methanesulfonyl)-1-phenyl-4-{4-[(propan-2-yl)oxy]piperidin-1-yl}-1H-pyrazolo[3,4-b]pyridine-6-carboxamide] | 228.95% | 347 nM | 387.15% | 109 nM |  | 
CS(=O)(=O)NC(=O)c1cc(N2CCC(N3CCOCC3)CC2)c2c(C3CCC3)nn(-c3cccc(C(F)(F)F)c3)c2n1 [Compound 516, 3-cyclobutyl-N-(methanesulfonyl)-4-[4-(morpholin-4-yl)piperidin-1-yl]-1-[3-(trifluoromethyl)phenyl]-1H-pyrazolo[3,4-b]pyridine-6-carboxamide] | 322.7% | 120 nM | 545.3% | 56.6 nM |  | 
CCS(=O)(=O)NC(=O)c1cc(-c2ccc(N(C)C)nc2)c2c(C(C)C)nn(C3CCCC3)c2n1 [Compound 56, 1-cyclopentyl-4-[6-(dimethylamino)pyridin-3-yl]-N-(ethanesulfonyl)-3-(propan-2-yl)-1H-pyrazolo[3,4-b]pyridine-6-carboxamide] | 122.1% | 1180 nM | 336.75% | 838 nM |  | 
O=C(c1cc(N2CCC(CN3CCCC3)CC2)c2c(C3CCC3)nn(-c3ccccc3)c2n1)N1CCCS1(=O)=O [Compound 661, 2-(3-cyclobutyl-1-phenyl-4-{4-[(pyrrolidin-1-yl)methyl]piperidin-1-yl}-1H-pyrazolo[3,4-b]pyridine-6-carbonyl)-1λ^6,2-thiazolidine-1,1-dione] | 67.125% | 155 nM | 227.45% | 135 nM |  | 
CC(C)(C)c1nn(C2CCCC2)c2nc(C(=O)NS(C)(=O)=O)cc(-c3ccc(N4CCOCC4)nc3)c12 [Compound 12, 3-tert-butyl-1-cyclopentyl-N-(methanesulfonyl)-4-[6-(morpholin-4-yl)pyridin-3-yl]-1H-pyrazolo[3,4-b]pyridine-6-carboxamide] | 161.15% | 1070 nM | 364.15% | 714 nM |  | 
CCOC(=O)N1CCC(NS(=O)(=O)NC(=O)c2cc(OCC3CCOCC3)c3c(C4CCC4)nn(-c4ccccc4)c3n2)CC1 [Compound 356, ethyl 4-[({3-cyclobutyl-4-[(oxan-4-yl)methoxy]-1-phenyl-1H-pyrazolo[3,4-b]pyridine-6-carbonyl}sulfamoyl)amino]piperidine-1-carboxylate] | 188.25% | 105 nM | 372% | 48.3 nM |  | 
O=C(NS(=O)(=O)C1CC1)c1cc(N2CCC(N3CCOCC3)CC2)c2c(C3CCC3)nn(-c3ccc(F)cc3)c2n1 [Compound 507, 3-cyclobutyl-N-(cyclopropanesulfonyl)-1-(4-fluorophenyl)-4-[4-(morpholin-4-yl)piperidin-1-yl]-1H-pyrazolo[3,4-b]pyridine-6-carboxamide] | 309.4% | 137 nM | 580.4% | 95.4 nM |  | 
Cc1nn(-c2ccccc2)c2nc(C(=O)NS(C)(=O)=O)cc(-c3ccc(N(C)C)cc3)c12 [Compound 33, 4-[4-(dimethylamino)phenyl]-N-(methanesulfonyl)-3-methyl-1-phenyl-1H-pyrazolo[3,4-b]pyridine-6-carboxamide] | 109% | 2580 nM | 315.6% | 471 nM |  | 
COCCS(=O)(=O)NC(=O)c1cc(N2CCC(COC)CC2)c2c(C3CCC3)nn(-c3ccc(F)cc3)c2n1 [Compound 670, 3-cyclobutyl-1-(4-fluorophenyl)-N-(2-methoxyethanesulfonyl)-4-[4-(methoxymethyl)piperidin-1-yl]-1H-pyrazolo[3,4-b]pyridine-6-carboxamide] | 399.2% | 277 nM | 477.6% | 191 nM |  | 
CS(=O)(=O)NC(=O)c1cc(N2CC3(CCC3)C2)c2c(C3CCC3)nn(-c3ccccc3)c2n1 [Compound 214, 4-(2-azaspiro[3.3]heptan-2-yl)-3-cyclobutyl-N-(methanesulfonyl)-1-phenyl-1H-pyrazolo[3,4-b]pyridine-6-carboxamide] | 103.6% | 1010 nM | 250.55% | 384 nM |  | 
COCC1CCN(c2cc(C(=O)NS(=O)(=O)N3CCC(N4CCCC4)CC3)nc3c2c(C2CCC2)nn3-c2ccccc2)CC1 [Compound 388, 3-cyclobutyl-4-[4-(methoxymethyl)piperidin-1-yl]-1-phenyl-N-[4-(pyrrolidin-1-yl)piperidine-1-sulfonyl]-1H-pyrazolo[3,4-b]pyridine-6-carboxamide] | 192.8% |  | 364.5% |  | 218 nM | 196 nM
O=C(NS(=O)(=O)N1CCC(F)CC1)c1cc(N2CCC(N3CCOCC3)CC2)c2c(C3CCC3)nn(-c3ccccc3)c2n1 [Compound 434, 3-cyclobutyl-N-(4-fluoropiperidine-1-sulfonyl)-4-[4-(morpholin-4-yl)piperidin-1-yl]-1-phenyl-1H-pyrazolo[3,4-b]pyridine-6-carboxamide] | 245.2% | 57.7 nM | 470.37% | 59.5 nM |  | 
COCC1CCN(c2cc(C(=O)NS(=O)(=O)c3cn(C)cn3)nc3c2c(C2CCC2)nn3-c2ccccc2)CC1 [Compound 286, 3-cyclobutyl-4-[4-(methoxymethyl)piperidin-1-yl]-N-(1-methyl-1H-imidazole-4-sulfonyl)-1-phenyl-1H-pyrazolo[3,4-b]pyridine-6-carboxamide] | 264% | 327 nM | 500.55% | 159 nM |  | 
CN(C)S(=O)(=O)NC(=O)c1cc(N2CCC(N3CCOCC3)CC2)c2c(C3CCC3)nn(-c3cccc(OC(F)F)c3)c2n1 [Compound 652, 3-cyclobutyl-1-[3-(difluoromethoxy)phenyl]-N-(dimethylsulfamoyl)-4-[4-(morpholin-4-yl)piperidin-1-yl]-1H-pyrazolo[3,4-b]pyridine-6-carboxamide] | 289.03% | 84.1 nM | 499.65% | 24.9 nM |  | 
COC1CCN(c2ccc(-c3cc(C(=O)NS(C)(=O)=O)nc4c3c(C(C)C)nn4C3CCCCC3)cn2)C1 (stereo not drawn) [Compound 106, 1-cyclohexyl-N-(methanesulfonyl)-4-[6-(3-methoxypyrrolidin-1-yl)pyridin-3-yl]-3-(propan-2-yl)-1H-pyrazolo[3,4-b]pyridine-6-carboxamide] | 162.75% | 526 nM | 348.1% | 394 nM |  | 
Cc1cc(C)cc(-n2nc(C)c3c(-c4ccc(N5CCOCC5)cc4)cc(C(=O)NS(C)(=O)=O)nc32)c1 [Compound 24, 1-(3,5-dimethylphenyl)-N-(methanesulfonyl)-3-methyl-4-[4-(morpholin-4-yl)phenyl]-1H-pyrazolo[3,4-b]pyridine-6-carboxamide] | 193.75% | 888 nM | 380.5% | 744 nM |  | 
COCC1CCN(c2cc(C(=O)NS(=O)(=O)C3CCNCC3)nc3c2c(C2CCC2)nn3-c2ccccc2)CC1 [Compound 368, 3-cyclobutyl-4-[4-(methoxymethyl)piperidin-1-yl]-1-phenyl-N-(piperidine-4-sulfonyl)-1H-pyrazolo[3,4-b]pyridine-6-carboxamide] | 185% | 1360 nM | 350.23% | 361 nM |  | 
